From patent US10538475B2, “Amphiphilic cyclobutenes and cylobutanes” (priority 2012, dated 2020)
Where two headings read alike, the source gives them in different places.

Tests used:
M. smeg (mc2155) [1] = assay: MIC by 96-well microplate twofold dilution, M. smeg; format: cell-based; conditions: for MIC: M. smeg mc2155, minimal media, 3-4 day; for fold differences between MICs for M. smeg and M. tb: M. smeg vs M. tb
M. tb (CDC1551) = assay: MIC by 96-well microplate twofold dilution, M. tb CDC1551; format: cell-based, Mycobacterium tuberculosis; conditions: minimal media, 5-7 weeks
M. tb (H37Rv) = assay: MIC by 96-well microplate twofold dilution, M. tb H37Rv; format: cell-based, Mycobacterium tuberculosis; conditions: minimal media, 5-7 weeks
[2] = 1D 1H NMR aqueous stability and concentration dependent micelle formation; format: physicochemical; conditions: 100 μM, 500 μM, 750 μM, and 1000 μM; FIG. 2
Experimental: One-dimensional (1D)^1H-NMR spectroscopy was used to verify the chemical purity, aqueous stability, and concentration dependent micelle formation of eleven fatty acid analogs. Each compound was dissolved in deuterated dimethyl sulfoxide (DMSO-d6) to obtain a stock concentration of 20 mM. Four different concentrations were prepared from the stock solutions for NMR analysis: 1.00 mM, 750 μM, 500 μM, 100 μM. All NMR samples consisted of 600 μL of a deuterated 50 mM potassium phosphate buffer at pH 7.2 with 50 μM of 3 (trimethylsilyl) propionic-2,2,3,3-d4 acid sodium salt (TMSP). Each 600 μL NMR sample contains 30 μL (5%) of DMSO-d6 and was transferred to a 5 mm NMR tube for analysis.
A Bruker Avance DRX 500-MHz spectrometer equipped with a 5 mm triple-resonance cryoprobe (^1H, ^13C, ^15N) with a z-axis gradient was utilized for all 1D ^1H NMR experiments. Acquisition of NMR spectra was automated using a BACS-120 sample changer and Icon NMR software. All spectra were acquired at 298.15 K with 16 dummy scans, 64 scans, 32K data points, a spectral width of 5482.46 Hz, and a relaxation delay of 1.5 s. The NMR spectra were processed and analyzed using ACD/1D NMR Manager (Advanced Chemistry Development). The resulting 1D ^1H NMR spectra were visually inspected for evidence of micelle formation (peak broadening), or chemical instability/impurities (additional peaks). […]

M. smeg (mc2155) [3] = conditions: M. tb vs M. smeg; cited from earlier work
RAW 264.7 macrophages = conditions: cited from earlier work
[4] = highest concentration tested 1024 μg/ml
[5] = highest concentration tested 256 μg/ml
[6] = highest concentration tested 1024 μg/ml, read-out: MIC
[7] = Mycobacterium tuberculosis, highest concentration tested 256 μg/ml, read-out: MIC
[8] = Mycobacterium tuberculosis, H37RV, highest concentration tested 256 μg/ml, read-out: MIC

For “2-(Octanoic acid, 8-yl) 3-octylcyclobutanol and 3-(Octanoic acid, 8-yl) 2-octylcyclobutanol [Compound 4]”, the MIC (M. smeg (mc2155) [1]; [4]) was 256 µg/mL, the MIC (M. smeg (mc2155) [1]; read-out: MIC) was 784 µM and the “fold differences between MICs for M. smeg and M. tb” value (“fold differences between MICs” for short) (M. smeg (mc2155) [1]) was “five to ten”. It also gave an MIC (M. tb (CDC1551); [5]) of 8 µg/mL and an MIC (M. tb (H37Rv); [5]) of 2 µg/mL.
Work on “2-(Octanoic acid, 8-yl) 3-octylcyclobutanone and 3-(octanoic acid, 8-yl) 2-octylcyclobutanone [Compound 3]” yielded an MIC (M. smeg (mc2155) [1]) of about 313 µM, an MIC (M. smeg (mc2155) [1]; [4]) of 64 µg/mL and an MIC (M. smeg (mc2155) [1]; read-out: MIC) of 197 µM. For the same compound, the MIC (M. tb (CDC1551); [5]) was 64 µg/mL, the MIC (M. tb (CDC1551); read-out: MIC) was 197 µM and the MIC (M. tb (H37Rv); [5]) was 32 µg/mL. For the same compound, the MIC (M. tb (H37Rv); read-out: MIC) was 99 µM.
“2-Chloro-4-(octanoic acid, 8-yl) 3-octylcyclobutanone-; 2-Chloro-3-(octanoic acid, 8-yl) 4-octylcyclobutanone [Compound 5]” showed an MIC (M. smeg (mc2155) [1]; [4]) of 256 µg/mL, an MIC (M. smeg (mc2155) [1]; read-out: MIC) of 713 µM and an MIC (M. tb (CDC1551); [5]) of 256 µg/mL. It also gave an MIC (M. tb (CDC1551); read-out: MIC) of 713 µM, an MIC (M. tb (H37Rv); [5]) of 16 µg/mL and an MIC (M. tb (H37Rv); read-out: MIC) of 45 µM.
With `CCCCCCCC[C@H]1CC[C@H]1CCCCCCCC(=O)O` (relative stereo) [Compound 2, cis-9,10-Ethanooctadecanoic acid] the MIC (M. smeg (mc2155) [1]) was about 313 µM, the MIC (M. smeg (mc2155) [1]; [4]) was 64 µg/mL and the MIC (M. smeg (mc2155) [1]; read-out: MIC) was 206 µM. The “fold differences between MICs” value (M. smeg (mc2155) [1]) was “five to ten”, the MIC (M. tb (CDC1551); [5]) was 8 µg/mL and the MIC (M. tb (H37Rv); [5]) was 16 µg/mL. It also gave an MIC (M. tb (H37Rv); read-out: MIC) of 52 µM.
For `CCCCCCCCC1=C(CCCCCCCC(=O)O)CC1` [Compound 6, 1-(Octanoic acid, 8-yl)-2-octylcyclobutene], the MIC (M. smeg (mc2155) [1]; [4]) was 256 µg/mL, the MIC (M. smeg (mc2155) [1]; read-out: MIC) was 830 µM and the “fold differences between MICs” value (M. smeg (mc2155) [1]) was “five to ten”. It also gave an MIC (M. tb (CDC1551); [5]) of 128 µg/mL, an MIC (M. tb (CDC1551); read-out: MIC) of 415 µM and an MIC (M. tb (H37Rv); [5]) of 16 µg/mL. It also gave an MIC (M. tb (H37Rv); read-out: MIC) of 52 µM.
With `O=C(O)CCCCCCCC1C=CC1` (stereo not shown) [Compound 8, 8-(2-Cyclobuten-1-yl)-octanoic acid] the MIC (M. smeg (mc2155) [1]; [6]) was 64 µg/mL, the MIC (M. smeg (mc2155) [1]; read-out: MIC) was 326 µM and the “fold differences between MICs” value (M. smeg (mc2155) [1]) was “five to ten”. For the same compound, the MIC (M. tb (CDC1551); [7]) was 4 µg/mL, the MIC (M. tb (H37Rv); [8]) was 4 µg/mL and the “micelle formation (peak broadening relative to TMSP)” value [2] was “No micelle formation”.
With `O=C(O)CCCCCCCC1CCC1` [Compound 9, 8-Cyclobutyloctanoic acid] the MIC (M. smeg (mc2155) [1]; [6]) was 128 µg/mL, the MIC (M. smeg (mc2155) [1]; read-out: MIC) was 645 µM and the “fold differences between MICs” value (M. smeg (mc2155) [1]) was “five to ten”. The MIC (M. tb (CDC1551); [7]) was 4 µg/mL and the MIC (M. tb (H37Rv); [8]) was 4 µg/mL.
Work on `O=C(O)CCCCCCCC1CC(=O)C1` [Compound 10, 3-(Octanoic acid, 8-yl)cyclobutanone] yielded an MIC (M. smeg (mc2155) [1]; [4]) of 128 µg/mL, an MIC (M. smeg (mc2155) [1]; read-out: MIC) of 603 µM and an MIC (M. tb (CDC1551); [5]) of 128 µg/mL. For the same compound, the MIC (M. tb (CDC1551); read-out: MIC) was 603 µM, the MIC (M. tb (H37Rv)) was 1,206 μM and the MIC (M. tb (H37Rv); [5]) was 256 µg/mL.
`O=C(O)CCCCCCCC1CC(O)C1` (stereo not shown) [Compound 11, 3-(Octanoic acid)cyclobutanol] showed an MIC (M. smeg (mc2155) [1]) of about 313 µM, an MIC (M. smeg (mc2155) [1]; [4]) of 64 µg/mL and an MIC (M. smeg (mc2155) [1]; read-out: MIC) of 302 µM. The MIC (M. tb (CDC1551); [5]) was 64 µg/mL, the MIC (M. tb (CDC1551); read-out: MIC) was 299 µM and the MIC (M. tb (H37Rv); [5]) was 128 µg/mL. It also gave an MIC (M. tb (H37Rv); read-out: MIC) of 597 µM.
In the case of `N[C@@H]1CONC1=O` [DCS, D-cycloserine, reference compound], the MIC (M. smeg (mc2155) [1]; [4]) is reported as 75 µg/mL, the MIC (M. smeg (mc2155) [1]; read-out: MIC) is reported as 313 µM and the MIC (M. tb (CDC1551); [5]) is reported as 12.5 µg/mL. The MIC (M. tb (CDC1551); read-out: MIC) was 122 µM, the MIC (M. tb (H37Rv); [5]) was 12.5 µg/mL and the MIC (M. tb (H37Rv); read-out: MIC) was 122 µM.
`CCCCCCCCCC(=O)O` [Decanoic acid (DA), Decanoic acid, reference compound] gave an MIC (M. smeg (mc2155) [1]; [6]) of 128 µg/mL, an MIC (M. smeg (mc2155) [1]; read-out: MIC) of 752 µM and an MIC (M. tb (CDC1551); [7]) of 32 µg/mL. It also gave an MIC (M. tb (CDC1551); Mycobacterium tuberculosis, read-out: MIC) of 188 µM, an MIC (M. tb (H37Rv); [8]) of 32 µg/mL and an MIC (M. tb (H37Rv); Mycobacterium tuberculosis, H37RV, read-out: MIC) of 188 µM.
For `NNC(=O)c1ccncc1` [Isoniazid], the “fold more potent inhibition of M. tb compared with M. smeg” value (M. smeg (mc2155) [3]) is listed as 100 fold.
For `CCCCCCCC/C=C\CCCCCCCC(=O)O` [oleate, oleic acid], the “concentrations displaying some toxicity to this cell line” value (RAW 264.7 macrophages) is given as at least 200 µM.
